Data on eleven compounds can be found in ChEMBL document CHEMBL1133281, “Synthesis and HIV-1 integrase inhibitory activities of caffeoylglucosides” (Bioorg Med Chem Lett, 2000).

The target of the assay is Human immunodeficiency virus type 1 integrase (Human immunodeficiency virus 1, UniProt Q7ZJM1). Kind of assay: Inhibitory activity against HIV-1 integrase.
Human immunodeficiency virus type 1 integrase, sequence (Q7ZJM1 whole entry): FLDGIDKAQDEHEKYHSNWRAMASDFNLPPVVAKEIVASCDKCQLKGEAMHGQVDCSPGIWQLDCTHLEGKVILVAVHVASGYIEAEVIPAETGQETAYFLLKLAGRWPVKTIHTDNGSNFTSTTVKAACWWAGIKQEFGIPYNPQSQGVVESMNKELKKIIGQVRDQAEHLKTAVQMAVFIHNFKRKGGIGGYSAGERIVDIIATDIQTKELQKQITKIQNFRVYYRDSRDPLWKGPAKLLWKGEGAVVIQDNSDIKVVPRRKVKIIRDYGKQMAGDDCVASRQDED

The IC50 is the midpoint of a concentration-inhibition curve. High values mean weaker potency in that assay, low ones greater potency in that assay. In the case of `CO[C@H]1O[C@H](COC(=O)/C=C/c2ccc(O)c(O)c2)[C@@H](OC(=O)/C=C/c2ccc(O)c(O)c2)[C@H](OC(=O)/C=C/c2ccc(O)c(O)c2)[C@H]1OC(=O)/C=C/c1ccc(O)c(O)c1`, the IC50 is over 119 µM.

As for `CO[C@@H]1O[C@H](COC(=O)/C=C/c2ccc(O)c(O)c2)[C@@H](O)[C@H](OC(=O)/C=C/c2ccc(O)c(O)c2)[C@H]1O`, it took 35.1 µM to reach half-maximal inhibition (IC50). In the case of `CO[C@@H]1O[C@H](COC(=O)/C=C/c2ccc(O)c(O)c2)[C@@H](O)[C@H](O)[C@H]1OC(=O)/C=C/c1ccc(O)c(O)c1` it was 30.5 µM; in that of `CO[C@H]1O[C@H](CO)[C@@H](O)[C@H](OC(=O)/C=C/c2ccc(O)c(O)c2)[C@H]1OC(=O)/C=C/c1ccc(O)c(O)c1`, 29.1 µM. In turn, `CO[C@H]1O[C@H](COC(=O)/C=C/c2ccc(O)c(O)c2)[C@@H](O)[C@H](OC(=O)/C=C/c2ccc(O)c(O)c2)[C@H]1O` registered an IC50 of 82.4 µM. Against the preceding compound, the IC50 is about 2.8-fold higher. `COC1O[C@H](CO)[C@@H](O)[C@H](OC(=O)c2cc(O)c(O)c(O)c2)[C@H]1OC(=O)c1cc(O)c(O)c(O)c1` (stereo partly specified) displayed a half-inhibitory concentration (IC50) of 5.4 µM. Against the preceding compound, the IC50 is about 15-fold lower. In turn, `CO[C@@H]1O[C@H](CO)[C@@H](O)[C@H](OC(=O)/C=C/c2ccc(O)c(O)c2)[C@H]1OC(=O)/C=C/c1ccc(O)c(O)c1` returned an IC50 of 31.8 µM. Compound `CO[C@@H]1O[C@H](COC(=O)/C=C/c2ccc(O)c(O)c2)[C@@H](OC(=O)/C=C/c2ccc(O)c(O)c2)[C@H](OC(=O)/C=C/c2ccc(O)c(O)c2)[C@H]1OC(=O)/C=C/c1ccc(O)c(O)c1` had a half-maximal inhibitory concentration (IC50) of 89.6 µM.

Turning to `CO[C@H]1O[C@H](COC(=O)/C=C/c2ccc(O)c(O)c2)[C@@H](O)[C@H](O)[C@H]1OC(=O)/C=C/c1ccc(O)c(O)c1`, the IC50 came out at 70 µM. In the case of `C[C@@H]1O[C@@H](O[C@@H]2[C@@H](O)[C@H](OCCc3ccc(O)c(O)c3)O[C@H](CO)[C@H]2OC(=O)/C=C/c2ccc(O)c(O)c2)[C@H](O)[C@H](O)[C@H]1O` [ACETOSIDE] it was 7.8 µM; in that of `COc1cc(/C=C/C(=O)CC(=O)/C=C/c2ccc(O)c(OC)c2)ccc1O` [CURCUMIN], 57.5 µM.
